Experiment [1] has as its target T1, Vascular endothelial growth factor A, long form (Homo sapiens, UniProt P15692).
T1 sequence (P15692 whole entry): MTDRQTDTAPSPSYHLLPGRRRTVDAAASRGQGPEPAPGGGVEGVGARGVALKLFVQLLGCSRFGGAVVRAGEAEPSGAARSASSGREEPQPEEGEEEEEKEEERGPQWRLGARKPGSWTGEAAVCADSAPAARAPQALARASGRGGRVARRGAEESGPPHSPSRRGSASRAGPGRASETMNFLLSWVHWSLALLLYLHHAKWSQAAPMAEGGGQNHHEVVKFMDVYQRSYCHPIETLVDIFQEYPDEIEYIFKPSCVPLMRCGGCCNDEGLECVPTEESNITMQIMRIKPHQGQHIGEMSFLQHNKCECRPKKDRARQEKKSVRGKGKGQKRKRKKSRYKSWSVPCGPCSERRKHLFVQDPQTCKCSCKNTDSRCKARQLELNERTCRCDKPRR
Kind of experiment: Binding affinity to human VEGF (13 to 107 residues) expressed in Escherichia coli Rosetta (DE3) cells assessed as dissociation constant at 20 degreeC by isothermal titration calorimetry analysis. In general terms: In ITC the heat of successive injections is recorded.

Experiment [2] has as its target T2, Vascular endothelial growth factor A, long form (Homo sapiens) (UniProt P15692).
T2 sequence (whole entry): T1 sequence (P15692 whole entry)
Kind of experiment: Binding affinity to human VEGF (13 to 107 residues) expressed in Escherichia coli Rosetta (DE3) cells assessed as Gibbs free energy change at 20 degreeC by isothermal titration calorimetry analysis.

The target of experiment [3] is T2, Vascular endothelial growth factor A, long form (Homo sapiens). Briefly: Binding affinity to human VEGF (13 to 107 residues) expressed in Escherichia coli Rosetta (DE3) cells assessed as change in enthalpy at 20 degreeC by isothermal titration calorimetry analysis.
For experiment [4] the target is unchanged. Briefly: Binding affinity to human VEGF (13 to 107 residues) expressed in Escherichia coli Rosetta (DE3) cells assessed as change in entropy at 20 degreeC by isothermal titration calorimetry analysis.
The target is the same in experiment [5]. Briefly: Binding affinity to human VEGF (13 to 107 residues) expressed in Escherichia coli Rosetta (DE3) cells assessed as change in heat capacity at 20 degreeC by isothermal titration calorimetry analysis.
In experiment [6] the target is T1, Vascular endothelial growth factor A, long form. Kind of experiment: Binding affinity to human VEGF (13 to 107 residues) expressed in Escherichia coli Rosetta (DE3) cells assessed as dissociation constant at 37 degreeC by isothermal titration calorimetry analysis.
The target of experiment [7] is T2, Vascular endothelial growth factor A, long form (Homo sapiens). Briefly: Binding affinity to human VEGF (13 to 107 residues) expressed in Escherichia coli Rosetta (DE3) cells assessed as Gibbs free energy change at 37 degreeC by isothermal titration calorimetry analysis.
For experiment [8] the target is unchanged. Briefly: Binding affinity to human VEGF (13 to 107 residues) expressed in Escherichia coli Rosetta (DE3) cells assessed as change in enthalpy at 37 degreeC by isothermal titration calorimetry analysis.
For experiment [9] the target is unchanged. Kind of experiment: Binding affinity to human VEGF (13 to 107 residues) expressed in Escherichia coli Rosetta (DE3) cells assessed as change in entropy at 37 degreeC by isothermal titration calorimetry analysis.
The target in experiment [10] is T1, Vascular endothelial growth factor A, long form. Briefly: Binding affinity to human VEGF (13 to 107 residues) expressed in Escherichia coli Rosetta (DE3) cells assessed as dissociation constant at 20 degreeC by direct titration based isothermal titration calorimetry analysis.
Experiment [11] shares this target. Kind of experiment: Binding affinity to human VEGF (13 to 107 residues) expressed in Escherichia coli Rosetta (DE3) cells assessed as dissociation constant at 37 degreeC by direct titration based isothermal titration calorimetry analysis.
Experiment [12] addresses T2, Vascular endothelial growth factor A, long form (Homo sapiens). Kind of experiment: Binding affinity to human VEGF (13 to 107 residues) expressed in Escherichia coli Rosetta (DE3) cells assessed as change in enthalpy at 20 degreeC by direct titration based isothermal titration calorimetry analysis.
Experiment [13] has the same target. Kind of experiment: Binding affinity to human VEGF (13 to 107 residues) expressed in Escherichia coli Rosetta (DE3) cells assessed as change in enthalpy at 37 degreeC by direct titration based isothermal titration calorimetry analysis.
Experiment [14] has the same target. Kind of experiment: Binding affinity to human VEGF (13 to 107 residues) expressed in Escherichia coli Rosetta (DE3) cells assessed as change in entropy at 20 degreeC by direct titration based isothermal titration calorimetry analysis.
For experiment [15] the target is unchanged. Briefly: Binding affinity to human VEGF (13 to 107 residues) expressed in Escherichia coli Rosetta (DE3) cells assessed as change in entropy at 37 degreeC by direct titration based isothermal titration calorimetry analysis.
Experiment [16] deals with T1, Vascular endothelial growth factor A, long form. Briefly: Binding affinity to human VEGF (13 to 107 residues) expressed in Escherichia coli Rosetta (DE3) cells assessed as dissociation constant at 20 degreeC by reverse titration based isothermal titration calorimetry analysis.
For experiment [17] the target is unchanged. Briefly: Binding affinity to human VEGF (13 to 107 residues) expressed in Escherichia coli Rosetta (DE3) cells assessed as dissociation constant at 37 degreeC by reverse titration based isothermal titration calorimetry analysis.
The target in experiment [18] is T2, Vascular endothelial growth factor A, long form (Homo sapiens). Kind of experiment: Binding affinity to human VEGF (13 to 107 residues) expressed in Escherichia coli Rosetta (DE3) cells assessed as change in enthalpy at 20 degreeC by reverse titration based isothermal titration calorimetry analysis.
For experiment [19] the target is unchanged. Kind of experiment: Binding affinity to human VEGF (13 to 107 residues) expressed in Escherichia coli Rosetta (DE3) cells assessed as change in enthalpy at 37 degreeC by reverse titration based isothermal titration calorimetry analysis.
Experiment [20] has the same target. Kind of experiment: Binding affinity to human VEGF (13 to 107 residues) expressed in Escherichia coli Rosetta (DE3) cells assessed as change in entropy at 20 degreeC by reverse titration based isothermal titration calorimetry analysis.
The target is the same in experiment [21]. Briefly: Binding affinity to human VEGF (13 to 107 residues) expressed in Escherichia coli Rosetta (DE3) cells assessed as change in entropy at 37 degreeC by reverse titration based isothermal titration calorimetry analysis.
For experiment [22], the system named is HUVEC. Kind of experiment: Antiangiogenic activity in human HUVEC cells assessed as inhibition of VEGFA-induced capillary tube formation incubated for 6 hrs by matrigel based microscopic analysis. Type of experiment: functional, cell-based.
In experiment [23] the test system is HUVEC. Briefly: Antiangiogenic activity in human HUVEC cells assessed as inhibition of VEGFA-induced cell migration incubated for 12 hrs by wound healing assay. The experiment is classed as functional, cell-based.

Usually Kd stands for the free concentration of one partner at which half of the binding sites on the other are occupied at equilibrium, for simple one-to-one binding.

Starred links: 1 amine or outer side, 2 acyl side, 3 side chain; linkers in the order of their positions; H or OH if unused. Positions of bridges follow the written chain, without caps; N, C: chain ends. Residues, ends and D or L forms follow the SMILES beside them. Chains are numbered I, II in the order given. X1 = O=C(CCOCCOCCOCCOCCOCCOCCOCCOCCOCCOCCOCCOCCOCCOCCOCCOCCOCCOCCOCCOCCOCCOCCOCCOCCOCCC(=O)[*:2])[*:1]

As for `CC[C@H](C)[C@@H]1NC(=O)[C@H](CC(=O)O)NC(=O)[C@@H](NC(C)=O)CSSC[C@@H]2NC(=O)[C@H](CCCCNC(=O)C[C@@H](C(=O)N[C@@H](CC(C)C)C(N)=O)NC(=O)[C@H](CCC(=O)O)NC(=O)[C@H](Cc3ccccc3)NC2=O)NC(=O)[C@H](Cc2c[nH]c3ccccc23)NC(=O)[C@H](CCC(=O)O)NC(=O)[C@H](Cc2c[nH]c3ccccc23)NC(=O)[C@H](CCCCNC(=O)CCOCCOCCOCCOCCOCCOCCOCCOCCOCCOCCOCCOCCOCCOCCOCCOCCOCCOCCOCCOCCOCCOCCOCCOCCOCCC(=O)NCCCC[C@@H]2NC(=O)[C@H](C(C)C)NC(=O)[C@H](Cc3cnc[nH]3)NC(=O)[C@H]([C@@H](C)CC)NC(=O)[C@H](CC(=O)O)NC(=O)[C@@H](NC(C)=O)CSSC[C@@H]3NC(=O)[C@H](CCCCNC(=O)C[C@@H](C(=O)N[C@@H](CC(C)C)C(N)=O)NC(=O)[C@H](CCC(=O)O)NC(=O)[C@H](Cc4ccccc4)NC3=O)NC(=O)[C@H](Cc3c[nH]c4ccccc34)NC(=O)[C@H](CCC(=O)O)NC(=O)[C@H](Cc3c[nH]c4ccccc34)NC2=O)NC(=O)[C@H](C(C)C)NC(=O)[C@H](Cc2cnc[nH]2)NC1=O` (I: Ac-CDIHVKWEWKCFEDL-NH2 / II: Ac-CDIHVKWEWKCFEDL-NH2; disulfide I:1-I:11, II:1-II:11; linker I:6-II:6 via X1; lactam I:10-I:14, II:10-II:14), the Kd in [1] was 0.009 µM; in experiment [6] it was 0.026 µM; in experiment [10], 0.012 µM; in experiment [11], 0.026 µM; in experiment [16] it was 0.011 µM; in experiment [17] it was 0.014 µM. Moreover, the deltaG in [2] and in experiment [7] was -45.2 kJ/mol throughout. Further, the deltaH in experiment [3] is -157 kJ/mol; in experiment [8] it was -210 kJ/mol; in experiment [12], -149 kJ/mol; in experiment [13], -210 kJ/mol; in [18], -156 kJ/mol; in experiment [19] it was -212 kJ/mol. Moreover, the -TdeltaS was 112 kJ/mol in [4] and 165 kJ/mol in [9]. Besides, in experiment [5], the DeltaCp was -0.75 kcal/mol/K. Besides, the deltaS is -95.4 cal/mol.K in experiment [14], -127 cal/mol.K in experiment [15], -91.1 cal/mol.K in experiment [20] and -127 cal/mol.K in experiment [21]. For the same compound, the Activity result with HUVEC [22] and with HUVEC [23] was “Dose-Dependent Effect” in each case.

The record behind these values is ChEMBL document CHEMBL5346952, “Dimer Peptide Ligands of Vascular Endothelial Growth Factor: Optimizing Linker Length for High Affinity and Antiangiogenic Activity” (J Med Chem, 2023).
